Test results taken from paper PMC3532212 (PLoS ONE, 2012).

Columns and labels:
[1] = Plasma concentrations in repeat-dosing study, satellite rats; format: in vivo, rat; conditions: for Plasma concentration: rat, mean±SEM; for Plasma concentration at Tmax / Terminal plasma concentration at Tmax: satellite rats; for Plasma concentration at Tmax: day 1; for Terminal plasma concentration at Tmax: last day of study
Procedure: Mean arterial pressure was assessed in conscious, freely moving male Sprague Dawley rats (n = 6–8/group; Charles River) instrumented with telemetry transmitters (DSI-Ponemah) and housed in metabolism cages as previously described, [26]. Tested compounds were solubilized in a 0.5% Methylcellulose/0.015% Tween 80 vehicle that was also dosed alone (p.o./QD, 5 mL/kg) as a control in the study. FTY720 was administered p.o. at 0.3, 1.0, 3.0, 10.0 mg/kg p.o. as a single dose or p.o./QD at 0.5, 1.5, and 5.0 mg/kg in a chronic study. BAF312 was administered p.o/QD at 0.3, 3.0, and 30 mg/kg as a single dose and in a chronic study. Mean arterial pressure and heart rate are shown as 1-hr and/or 24-hr mean values±SEM as described in the results. Blood samples in satellite rats were withdrawn at various timepoints as described in the results for analysis of plasma concentrations of the parent compound and, in the case of FTY720, also the phosphorylated metabolite, (S)-FTY720-P. Statistical analysis for the single-dose acute studies was based on one-way ANOVA to compare the treatment groups vs. vehicle for each time period after dosing (0–24 hrs, 24–48 hrs, and 48–72 hrs); statistical significance (p<0.05) was detected by Dunnett’s post-hoc test to compare treatment with vehicle controls. The statistical analysis in the chronic studies were based on one-way ANOVA with repeated measures to compare the treatment arms; statistical significance (p<0.05) was detected by Dunnett’s post-hoc test to compare treatment with vehicle controls.

[2] = Plasma concentrations during escalating i.v. infusion in anesthetized rats; format: in vivo; conditions: anesthetized rat, FTY720 i.v.
Procedure: The cardiovascular effects of FTY720 and BAF312 were tested in anesthetized rats (180–200 g). In brief, male Sprague Dawley rats (Charles River) were anesthetized with Inactin (110 mg/kg i.p.) and a tracheotomy performed. The femoral artery and veins were catheterized for measurement of mean arterial pressure and heart rate, collection of blood samples at 20-min intervals (0.2 mL/sample), and for compound infusion/hydration as previously described, [24]; blood samples were also withdrawn in vehicle-treated control rats. FTY720, infused as a hydrochloride salt (0.1, 0.3, 1.0 mg/kg/20-min free base equivalent solubilized in a 100% PEG-400 vehicle), or BAF312 (0.5, 1.5, 5.0 mg/kg/20-min solubilized in a 100% PEG-400 vehicle) were administered via three escalating 20-min infusions (0.011 mL/min) followed by a 1-hr post-treatment period. A blood sample was withdrawn at 20, 40, 60, and 120-minutes for analysis of plasma concentrations of the parent compound, and in the case of FTY720, also the phosphorylated metabolite, (S)-FTY720-P. Statistical significance (p<0.05) was based on a t-test comparing treatment change from baseline (baseline was defined as the period from −30 to 0 minutes) vs. vehicle controls change from baseline at each timepoint without adjustment for multiple comparisons. In a separate group of anesthetized rats in which left ventricular (LV) contractility was also recorded with a Millar pressure transducer introduced into the left ventricle, BAF312 was infused in the same dosing regimen as the studies described above (0.5, 1.5, 5.0 mg/kg/20-min solubilized in a 100% PEG-400 vehicle) and effects on LV dP/dtmax were recorded.

human S1P4 = biological target: T1, human S1P4 (Homo sapiens, UniProt O95977); test: B arrestin recruitment assay, Tango EDG6-bla U2OS cells; format: cell-based; conditions: B arrestin, 18 hours agonist incubation
T1 construct: host or cells: U2OS (Tango EDG6-bla)
T1 sequence (O95977 1-384): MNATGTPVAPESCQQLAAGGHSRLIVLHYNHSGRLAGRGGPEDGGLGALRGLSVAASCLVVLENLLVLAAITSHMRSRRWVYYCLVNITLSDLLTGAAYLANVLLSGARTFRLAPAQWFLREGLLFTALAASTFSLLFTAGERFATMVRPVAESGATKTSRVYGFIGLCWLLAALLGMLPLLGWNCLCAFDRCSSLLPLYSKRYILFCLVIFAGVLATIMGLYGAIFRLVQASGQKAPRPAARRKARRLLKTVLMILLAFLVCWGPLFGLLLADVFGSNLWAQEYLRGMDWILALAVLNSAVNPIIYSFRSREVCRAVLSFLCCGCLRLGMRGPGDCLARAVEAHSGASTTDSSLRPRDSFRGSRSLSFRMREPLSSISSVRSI
Procedure: Tango™ EDG1-bla U2OS cells (Human S1P1), Tango™ EDG3-bla U2OS cells (human S1P3), Tango™ EDG6-bla U2OS cells (human S1P4) and Tango™ EDG8-bla U2OS cells (human S1P5) cell lines were cultured and assayed according to manufacturers instructions with one modification; agonists incubated on the cells for 18 hours prior to addition of the GenBlazer substrate. Final DMSO concentration in the assay is 1%.

[3] = Heart tissue concentrations at the end of the repeat-dosing study; format: in vivo; conditions: rat
Procedure: In the repeat-dosing study with FTY720 (0.5, 1.5, and 5.0 mg/kg/d), plasma concentrations were also determined ( Table 3 ).

## CCCCCCCCc1ccc(CC[C@](N)(CO)COP(=O)(O)O)cc1 [FTY720-P]
[1]; FTY720 0.5 mg/kg/d p.o., Day 1, 4 hr post-dose
  Plasma concentration: 0.046 ± 0.005 µM
[1]; FTY720 0.5 mg/kg/d p.o., Day 1, 8 hr post-dose
  Plasma concentration: 0.103 ± 0.024 µM
[1]; FTY720 0.5 mg/kg/d p.o., Day 1, 24 hr post-dose
  Plasma concentration: 0.065 ± 0.023 µM
[1]; FTY720 0.5 mg/kg/d p.o., Terminal (last day), 0-hr
  Plasma concentration: 0.141 ± 0.031 µM
[1]; FTY720 0.5 mg/kg/d p.o., Terminal (last day), 4 hr post-dose
  Plasma concentration: 0.229 ± 0.04 µM
[1]; FTY720 0.5 mg/kg/d p.o., Terminal (last day), 8 hr post-dose
  Plasma concentration: 0.478 ± 0.303 µM
[1]; FTY720 0.5 mg/kg/d p.o., Terminal (last day), 24 hr post-dose
  Plasma concentration: 0.546 ± 0.359 µM
[1]; FTY720 1.5 mg/kg/d p.o., Day 1, 4 hr post-dose
  Plasma concentration: 0.231 ± 0.001 µM
[1]; FTY720 1.5 mg/kg/d p.o., Day 1, 8 hr post-dose
  Plasma concentration: 0.275 ± 0.055 µM
[1]; FTY720 1.5 mg/kg/d p.o., Day 1, 24 hr post-dose
  Plasma concentration: 0.264 ± 0.079 µM
[1]; FTY720 1.5 mg/kg/d p.o., Terminal (last day), 0-hr
  Plasma concentration: 0.69 ± 0.136 µM
[1]; FTY720 1.5 mg/kg/d p.o., Terminal (last day), 4 hr post-dose
  Plasma concentration: 0.8 ± 0.077 µM
[1]; FTY720 1.5 mg/kg/d p.o., Terminal (last day), 8 hr post-dose
  Plasma concentration: 0.647 ± 0.121 µM
[1]; FTY720 1.5 mg/kg/d p.o., Terminal (last day), 24 hr post-dose
  Plasma concentration: 0.56 ± 0.07 µM
[1]; FTY720 5.0 mg/kg/d p.o., Day 1, 4 hr post-dose
  Plasma concentration: 0.506 ± 0.074 µM
[1]; FTY720 5.0 mg/kg/d p.o., Day 1, 8 hr post-dose
  Plasma concentration: 0.696 ± 0.279 µM
[1]; FTY720 5.0 mg/kg/d p.o., Day 1, 24 hr post-dose
  Plasma concentration: 0.773 ± 0.055 µM
[1]; FTY720 5.0 mg/kg/d p.o., Terminal (last day), 0-hr
  Plasma concentration: 2.344 ± 0.356 µM
[1]; FTY720 5.0 mg/kg/d p.o., Terminal (last day), 4 hr post-dose
  Plasma concentration: 2.913 ± 0.238 µM
[1]; FTY720 5.0 mg/kg/d p.o., Terminal (last day), 8 hr post-dose
  Plasma concentration: 1.508 ± 0.316 µM
[1]; FTY720 5.0 mg/kg/d p.o., Terminal (last day), 24 hr post-dose
  Plasma concentration: 1.561 ± 0.23 µM
[1]; FTY720 0.5 mg/kg/d p.o.
  Plasma concentration at Tmax: 0.103 ± 0.024 µM
  Terminal plasma concentration at Tmax: 546 ± 358 nM
[1]; FTY720 1.5 mg/kg/d p.o.
  Plasma concentration at Tmax: 0.275 ± 0.055 µM
  Terminal plasma concentration at Tmax: 800 ± 77 nM
[1]; FTY720 5.0 mg/kg/d p.o.
  Plasma concentration at Tmax: 0.773 ± 0.055 µM
  Terminal plasma concentration at Tmax: 2913 ± 92 nM
[2]; end of 0.1 mg/kg/20 min infusion, listed as phosphorylated FTY720, 0.1 mg/kg
  Plasma concentration: 0.285 ± 0.087 µM
[2]; end of 0.3 mg/kg/20 min infusion, listed as phosphorylated FTY720, 0.3 mg/kg
  Plasma concentration: 0.683 ± 0.214 µM
[2]; end of 1.0 mg/kg/20 min infusion, listed as phosphorylated FTY720, 1 mg/kg
  Plasma concentration: 0.908 ± 0.264 µM
[2]; end of 60-min post-treatment period, listed as phosphorylated FTY720
  Plasma concentration: 0.211 ± 0.017 µM
Human S1P4
  EC50: 0.026 µM
[3]; FTY720 0.5 mg/kg/d p.o.
  mean tissue concentration in heart: 513 ng/g
[3]; FTY720 1.5 mg/kg/d p.o.
  mean tissue concentration in heart: 757 ng/g
[3]; FTY720 5.0 mg/kg/d p.o.
  mean tissue concentration in heart: 3799 ng/g
